Assay results: patent publication US20100311678A1, “METHODS AND COMPOSITIONS FOR TREATING CANCER AND MODULATING SIGNAL TRANSDUCTION AND METABOLISM PATHWAYS” (priority 2007, published 2010)
“Also recorded” adds a separate entry of the source.

Legend:
[1] = tested on: adult rat dissociated dorsal root ganglion (DRG) neurons; assay: Intracellular delivery of fluorescent doxorubicin into dissociated DRG neurons with the TRPM8 agonist menthol (micrographs); format: cell-based; conditions: 2 mM doxorubicin/100 mM L-menthol for 10 minutes vs 2 mM doxorubicin alone for 20 minutes; fluorescence micrographs, FIG. 1
Description: FIG. 1 is a series of micrographs showing intracellular delivery of doxorubicin a fluorescent antiproliferative agent into adult rat dissociated dorsal root ganglion (DRG) neurons. The DRG neurons were treated with vehicle control (FIG. 1A), 2 mM doxorubicin (Adriamycin®) for 20 minutes (FIG. 1B), or 2 mM doxorubicin/100 mM L-menthol for 10 minutes (FIG. 1C). […] The size and number of the fluorescently labeled neurons are similar to those of TRPM8 expressing neurons.
The selective administration of compounds or agents that are cytotoxic to cancer cells is accomplished by the co-administration of menthol, an agonist of the large-pore cation channel receptor TRPM8, along with the antiproliferative agent doxorubicin (Adriamycin®). […] Once doxorubicin is within a cell it enters the nucleus where it binds to DNA.

[2] = tested on: adult rat dissociated dorsal root ganglion (DRG) neurons; assay: Intracellular delivery of fluorescent doxorubicin into dissociated DRG neurons with the TRPV1 agonist capsaicin (micrographs); format: cell-based; conditions: 2 mM doxorubicin/1 mM capsaicin for 5 minutes vs 2 mM doxorubicin alone for 20 minutes; fluorescence micrographs, FIG. 2
Description: FIG. 2 is a series of micrographs showing intracellular delivery of doxorubicin into adult rat dissociated dorsal root ganglion (DRG) neurons. The DRG neurons were treated with vehicle control (FIG. 2A), 2 mM doxorubicin (Adriamycin®) for 20 minutes (FIG. 2B), or 2 mM doxorubicin (Adriamycin®)/1 mM capsaicin for 5 minutes (FIG. 2C). […] The size and number of the fluorescently labeled neurons are similar to those of TRPV1 expressing neurons.
The selective administration of compounds or agents that are cytotoxic to cancer cells is accomplished by the co-administration of capsaicin, an agonist of the large-pore cation channel receptor TRPV1, along with doxorubicin (Adriamycin®).

SMILES: COc1cccc2c1C(=O)c1c(O)c3c(c(O)c1C2=O)C[C@@](O)(C(=O)CO)C[C@@H]3O[C@H]1C[C@H](N)[C@H](O)[C@H](C)O1 [doxorubicin]
- intracellular delivery/accumulation of doxorubicin [1]: only entered into cells in the presence of menthol; also recorded: intracellular accumulation of the doxorubicin only into those DRG neurons that express TRPM8
- intracellular delivery/accumulation of doxorubicin [2]: only entered into cells in the presence of capsaicin; also recorded: intracellular accumulation of the doxorubicin only into those DRG neurons that express TRPV1
